Measured values reported in patent US8507562B2, “Synthesis of (1)-beta-elemene, (-)-beta-elemenal, (-)-beta-elemenol, (-)-beta-elemene fluoride and their analogues, intermediates, and composition and uses thereof” (HYWE Pharmaceuticals, Inc., priority 2004, dated 2013).
Read-outs that look alike come from different tables or passages of the source.

Key:
[1] = system: human breast cancer ao10/17
[2] = system: STTG1 brain tumor; assay: MTT survival assay; type: cell-based, human
Description: (§1) The MTT assay is a commonly used method in evaluation of cell survival, based on the ability of viable cells to convert MTT, a soluble tetrazolium salt [3-(4,5-dimethylthuazole-2-yl)-2,5 diphenyl tetrazolium bromide], into an insoluble formazan precipitate, which is quantitated by spectrophotometry following solubilization in dimethyl sulfoxide (DMSO).
(§2) The cells were then solubilized in 125 μl of DMSO and absorbance readings were taken using a 96-well Opsys MRI Microplate Reader (ThermoLabsystems; Chantilly, Va.). The amount of MTT dye reduction was calculated based on the difference between absorbance at 570 nm and at 630 nm. Cell viability in treated cells was expressed as the amount of dye reduction relative to that of untreated control cells. The wells which contained only medium and 10 μl of MTT were used as blanks for the plate reader. Three sets of experiments were performed in 8-12 wells for each treatment.

[3] = system: human glioma G-422 (xenograph under skin); assay: Xenograph under skin, injection directly into tumor; type: in vivo, mice; conditions: for Tumor Weight X ± SD: in g (unit assumed)
From the text: The mice were killed after 3 weeks.

[4] = system: Colon Cancer Cells HCT-15
Description: (§3) Cells were maintained at 37° C. in a humidified atmosphere including 5% CO2. […] Drugs were dissolved in 100% DMSO and then diluted in medium for experiments.

[5] = system: A549 lung cancer; assay: MTT survival assay; conditions: 2 × 10^4 cells/ml
Description: as §1
(§4) In brief, carcinoma cells treated with test articles alone, in 96-well tissue culture dishes were incubated with MTT (2 μg/ml) for 4 h. The cells were then solubilized in 125 μl of DMSO and absorbance readings were taken using a 96-well Opsys MRI Microplate Reader (ThermoLabsystems; Chantilly, Va.). The amount of MTT dye reduction was calculated based on the difference between absorbance at 570 nm and at 630 nm. Cell viability in treated cells was expressed as the amount of dye reduction relative to that of untreated control cells. The wells that contained only medium and 10 μl of MTT were used as blanks for the plate reader.

[6] = system: human liver cancer QGY
[7] = system: Colon Cancer Cells Colo 205; assay: MTS cell viability assay; conditions: Colo 205, drug alone
Description: as §3

[8] = system: H-460 lung cancer; assay: MTT survival assay; type: cell-based, human; conditions: 2 × 10^4 cells/ml
Description: as §1, §2, §4
The cells were then solubilized in 125 μl of DMSO and absorbance readings were taken using a 96-well Opsys MRI Microplate Reader (ThermoLabsystems; Chantilly, Va.). The amount of MTT dye reduction was calculated based on the difference between absorbance at 570 nm and at 630 nm. Cell viability in treated cells was expressed as the amount of dye reduction relative to that of untreated control cells. The wells which contained only medium and 10 μI of MTT were used as blanks for the plate reader. Three sets of experiments were performed in 8-12 wells for each treatment.

[9] = 3H labeled Elemene, intravenous or oral, radioactivity detected in brain; cited from earlier work
[10] = system: BEL-7402 cells; conditions: BEL-7402 cells after 6 weeks of induction with Elemene at 48.9 ug/ml; cited from earlier work
[11] = system: Colon Cancer Cells Caco-2; assay: MTS cell viability assay; type: cell-based, human; conditions: combinations with Elemene 100 μg/ml, n = 8
Description: as §3

[12] = system: human breast cancer Bcap-37
[13] = Chronic toxicity study, 28 days i.p.; type: in vivo; conditions: rats
Description: In the Rat study, three groups of rats (n=20 per group, half male and half female) were given (i.p.) 7.5, 15, or 30 mg/kg/d of β-Elemene for 28 days consecutively. […] Ascites were not completely absorbed during 4 weeks without drug intake. […] The accumulated toxicity of β-Elemene (via i.p.) was not severe, except irritation at local injection site. The safe dose was 7.5 mg/kg/d.

[14] = system: human lung cancer A549
[15] = Blood brain barrier passage of 3H labeled Elemene; type: in vivo, experimental animals; conditions: own animal experiment, tritium labeled, parent, derivatives and/or metabolites not distinguished
From the text: But no careful experiments were done to figure out if it is beta-elemene itself, or its derivatives, or its metabolite or a combination of the above, which pass the BBB. Thus how Elemene works to treat brain tumor is unknown.

[16] = system: Colon Cancer Cells HCT-15; assay: MTS cell viability assay; conditions: combinations with Elemene 160 μg/ml, n = 8
Description: as §3

[17] = system: human glioma SHG44 (xenograph in brain); assay: Tumor xenographed in mice brain, survival; type: in vivo, nude mice; conditions: for Survival time as % of control (T/C): compared to control
Description: Mice model with tumor xenographed in mice brain: Glioma cell line G-422 or SHG44 (log phase) were diluted to 2×10^7/ml in cell culture hood (no bacteria environment). Each mouse was injected with 0.05 ml of tumor cell in its brain. […] The survival time of these mice was recorded in the next 30 days. The life extension was calculated using the following formula: Life Extension Rate=[( […])/Average survival days of control group[×100 Results: […]

[18] = 12.5 mg/kg/time iv × 10 bid, listed as β-Elemene
[19] = 25 mg/kg/time iv × 10 bid, listed as β-Elemene
[20] = 50 mg/kg/time iv × 10 bid, listed as β-Elemene

(−)-Beta-elemene
Inhibition Rate % ([1]; 12.5 mg/kg/time iv × 10 bid): 28.28%
Tumor Weight (g) X ± SD ([1]; 12.5 mg/kg/time iv × 10 bid): 0.827 ± 0.06 g
Inhibition Rate % [1, 18]: 31.08%
Inhibition Rate % ([1]; 25 mg/kg/time iv × 10 bid): 35.03%
Tumor Weight (g) X ± SD ([1]; 25 mg/kg/time iv × 10 bid): 0.765 ± 0.1 g
Inhibition Rate % [1, 19]: 36.25%
Inhibition Rate % ([1]; 50 mg/kg/time iv × 10 bid): 44.14%
Tumor Weight (g) X ± SD ([1]; 50 mg/kg/time iv × 10 bid): 0.643 ± 0.1 g
Inhibition Rate % [1, 20]: 46.42%
IC50 ([2]; STTG1, 24 h): 112 µg/mL
IC50 ([2]; STTG1, 48 h): 115 µg/mL
IC50 ([2]; STTG1, 72 h): 112 µg/mL
Inhibition Rate % ([3]; 15 mg/kg it × 10 qd): 32.00%
Tumor Weight X ± SD ([3]; 15 mg/kg it × 10 qd): 1.53 ± 0.27
Inhibition Rate % ([3]; 30 mg/kg it × 10 qd): 47.11%
Tumor Weight X ± SD ([3]; 30 mg/kg it × 10 qd): 1.19 ± 0.55
Inhibition Rate % ([3]; 60 mg/kg it × 10 qd): 60.89%
Tumor Weight X ± SD ([3]; 60 mg/kg it × 10 qd): 0.88 ± 0.24
IC50 [4]: 194 ± 19.3 µg/mL
IC50 ([5]; A549, 24 h): 62.0 µg/mL
IC50 ([5]; A549, 48 h): 55.6 µg/mL
IC50 ([5]; A549, 72 h): 56.4 µg/mL
Inhibition Rate % ([6]; 12.5 mg/kg/time iv × 10 bid): 30.92%
Tumor Weight (g) X ± SD ([6]; 12.5 mg/kg/time iv × 10 bid): 1.43 ± 0.12 g
Inhibition Rate % ([6]; 25 mg/kg/time iv × 10 bid): 37.20%
Tumor Weight (g) X ± SD ([6]; 25 mg/kg/time iv × 10 bid): 1.30 ± 0.18 g
Inhibition Rate % ([6]; 50 mg/kg/time iv × 10 bid): 45.89%
Tumor Weight (g) X ± SD ([6]; 50 mg/kg/time iv × 10 bid): 1.12 ± 0.19 g
IC50 ([7]; Time 4 hr, n = 8): 144 ± 10.4 µg/mL
IC50 ([7]; Time 4 hr/24 hr × 2, n = 8): 82.3 ± 7.11 µg/mL
IC50 ([7]; Time 4 hr/24 hr × 3, n = 8): 56.7 ± 12.6 µg/mL
IC50 ([7]; Time 4 hr/24 hr, n = 8): 96.3 ± 11.1 µg/mL
IC50 ([7]; Time 8 hr, n = 8): 116 ± 4.00 µg/mL
IC50 ([7]; Time 12 hr, n = 8): 110 ± 9.51 µg/mL
IC50 ([7]; Time 24 hr, n = 8): 83.0 ± 13.7 µg/mL
IC50 ([7]; Time 48 hr, n = 8): 75.3 ± 5.04 µg/mL
IC50 ([7]; Time 72 hr, n = 8): 77.7 ± 14.2 µg/mL
IC50 ([8]; H460, 24 h): 89.5 µg/mL
IC50 ([8]; H460, 48 h): 70.6 µg/mL
IC50 ([8]; H460, 72 h): 68.2 µg/mL
blood brain barrier (BBB) passage [9]: passes the blood brain barrier
expression of MDR1 mRNA or P-glycoprotein (P-gp) [10]: did not express MDR1 mRNA or P-glycoprotein (P-gp)
IC50 ([11]; Caco-2, 4 hr/24 hr × 2): 91.0 ± 7.55 µg/mL
IC50 ([11]; Caco-2, 4 hr/24 hr × 3): 81.1 ± 10.3 µg/mL
IC50 ([11]; Caco-2, 4 hr/24 hr): 108 ± 2.55 µg/mL
IC50 ([11]; Caco-2, 4 hr): 171 ± 16.0 µg/mL
IC50 ([11]; Caco-2, 8 hr): 167 ± 32.9 µg/mL
IC50 ([11]; Caco-2, 12 hr): 104 ± 10.7 µg/mL
IC50 ([11]; Caco-2, 24 hr): 107 ± 6.00 µg/mL
IC50 ([11]; Caco-2, 48 hr): 91.0 ± 7.51 µg/mL
IC50 ([11]; Caco-2, 72 hr): 89.1 ± 9.08 µg/mL
Inhibition Rate % ([12]; 12.5 mg/kg/time iv × 10 bid): 36.09%
Tumor Weight (g) X ± SD ([12]; 12.5 mg/kg/time iv × 10 bid): 0.870 ± 0.04 g
Inhibition Rate % [12, 18]: 33.08%
Inhibition Rate % ([12]; 25 mg/kg/time iv × 10 bid): 45.31%
Tumor Weight (g) X ± SD ([12]; 25 mg/kg/time iv × 10 bid): 0.738 ± 0.07 g
Inhibition Rate % [12, 19]: 43.23%
Inhibition Rate % ([12]; 50 mg/kg/time iv × 10 bid): 51.33%
Tumor Weight (g) X ± SD ([12]; 50 mg/kg/time iv × 10 bid): 0.675 ± 0.10 g
Inhibition Rate % [12, 20]: 48.08%
changes, low dose group ([13]; 7.5 mg/kg/d i.p., 28 days): No significant changes
mortality, high dose group ([13]; 30 mg/kg/d i.p., 28 days, n=20): Six rats in high dose group died
ascites, medium and high dose groups ([13]; 15 and 30 mg/kg/d i.p., 28 days): Ascites were developed in all animals
safe dose ([13]; i.p., 28 days consecutively): 7.5 mg/kg/day
Inhibition Rate % ([14]; 12.5 mg/kg/time iv × 10 bid): 31.28%
Tumor Weight (g) X ± SD ([14]; 12.5 mg/kg/time iv × 10 bid): 1.34 ± 0.10 g
Tumor Weight (g) X ± SD ([14]; 25 mg/kg/time iv × 10 bid): 1.17 ± 0.09 g
Inhibition Rate % [14, 19]: 40.0%
Inhibition Rate % ([14]; 50 mg/kg/time iv × 10 bid): 43.08%
Tumor Weight (g) X ± SD ([14]; 50 mg/kg/time iv × 10 bid): 1.11 ± 0.08 g
blood brain barrier (BBB) passage [15]: pass the blood-brain-barrier
blood brain barrier (BBB) passage ([15]; listed as beta-elemene): can pass blood brain barrier
IC50 ([16]; HCT-15, 4 hr/24 hr × 2): 199 ± 11.5 µg/mL
IC50 ([16]; HCT-15, 4 hr/24 hr × 3): 165 ± 23.0 µg/mL
IC50 ([16]; HCT-15, 4 hr/24 hr): 214 ± 15.8 µg/mL
IC50 ([16]; HCT-15, 4 hr): 229 ± 26.9 µg/mL
IC50 ([16]; HCT-15, 8 hr): 215 ± 34.1 µg/mL
IC50 ([16]; HCT-15, 12 hr): 202 ± 21.8 µg/mL
IC50 ([16]; HCT-15, 48 hr): 197 ± 12.7 µg/mL
IC50 ([16]; HCT-15, 72 hr): 197 ± 22.3 µg/mL
Average Life Span (day) X± SD ([17]; 7.5 mg/kg/time iv × 10 qd): 20.2 ± 1.7 days
Survival time as % of control (T/C) ([17]; 7.5 mg/kg/time iv × 10 qd): 132.84%
Survival time as % of control (T/C) ([17]; 7.5 mg/kg/time iv × 10 qd, listed as β-Elemene): 128.72%
Average Life Span (day) X± SD ([17]; 15 mg/kg/time iv × 10 qd): 21.8 ± 1.9 days
Survival time as % of control (T/C) ([17]; 15 mg/kg/time iv × 10 qd): 140.46%
Survival time as % of control (T/C) ([17]; 15 mg/kg/time iv × 10 qd, listed as β-Elemene): 139.31%
Average Life Span (day) X± SD ([17]; 30 mg/kg/time iv × 10 qd): 23.3 ± 3.6 days
Survival time as % of control (T/C) ([17]; 30 mg/kg/time iv × 10 qd): 150.37%
Survival time as % of control (T/C) ([17]; 30 mg/kg/time iv × 10 qd, listed as β-Elemene): 148.69%
Average Life Span (day) X± SD ([17]; 60 mg/kg/time iv × 10 qd): 25.2 ± 3.1 days
Survival time as % of control (T/C) ([17]; 60 mg/kg/time iv × 10 qd): 159.81%
Survival time as % of control (T/C) ([17]; 60 mg/kg/time iv × 10 qd, listed as β-Elemene): 160.36%
